Experimental data taken from patent US8541588B2, “Sulfonamide derivatives” (Pfizer Limited, priority 2009, dated 2013).

Target: T1, Nav1.7 (or SCN9A) channel; HEK cells stably transfected with hSCN9A (Homo sapiens, UniProt Q15858)
T1 construct: expressed in transfected cells
Assay: Nav1.7 block, PatchXpress 7000 automated whole-cell voltage clamp, estimated IC50 (EIC50)
Format: cell-based
Conditions: estimated IC50, PatchXpress platform

[1] = hSCN9A HEK cells, Examples 283-814
[2] = hSCN9A HEK cells held at V1/2 of inactivation
[3] = hSCN9A HEK cells, Examples 815-1040

T1 sequence (Q15858 whole entry): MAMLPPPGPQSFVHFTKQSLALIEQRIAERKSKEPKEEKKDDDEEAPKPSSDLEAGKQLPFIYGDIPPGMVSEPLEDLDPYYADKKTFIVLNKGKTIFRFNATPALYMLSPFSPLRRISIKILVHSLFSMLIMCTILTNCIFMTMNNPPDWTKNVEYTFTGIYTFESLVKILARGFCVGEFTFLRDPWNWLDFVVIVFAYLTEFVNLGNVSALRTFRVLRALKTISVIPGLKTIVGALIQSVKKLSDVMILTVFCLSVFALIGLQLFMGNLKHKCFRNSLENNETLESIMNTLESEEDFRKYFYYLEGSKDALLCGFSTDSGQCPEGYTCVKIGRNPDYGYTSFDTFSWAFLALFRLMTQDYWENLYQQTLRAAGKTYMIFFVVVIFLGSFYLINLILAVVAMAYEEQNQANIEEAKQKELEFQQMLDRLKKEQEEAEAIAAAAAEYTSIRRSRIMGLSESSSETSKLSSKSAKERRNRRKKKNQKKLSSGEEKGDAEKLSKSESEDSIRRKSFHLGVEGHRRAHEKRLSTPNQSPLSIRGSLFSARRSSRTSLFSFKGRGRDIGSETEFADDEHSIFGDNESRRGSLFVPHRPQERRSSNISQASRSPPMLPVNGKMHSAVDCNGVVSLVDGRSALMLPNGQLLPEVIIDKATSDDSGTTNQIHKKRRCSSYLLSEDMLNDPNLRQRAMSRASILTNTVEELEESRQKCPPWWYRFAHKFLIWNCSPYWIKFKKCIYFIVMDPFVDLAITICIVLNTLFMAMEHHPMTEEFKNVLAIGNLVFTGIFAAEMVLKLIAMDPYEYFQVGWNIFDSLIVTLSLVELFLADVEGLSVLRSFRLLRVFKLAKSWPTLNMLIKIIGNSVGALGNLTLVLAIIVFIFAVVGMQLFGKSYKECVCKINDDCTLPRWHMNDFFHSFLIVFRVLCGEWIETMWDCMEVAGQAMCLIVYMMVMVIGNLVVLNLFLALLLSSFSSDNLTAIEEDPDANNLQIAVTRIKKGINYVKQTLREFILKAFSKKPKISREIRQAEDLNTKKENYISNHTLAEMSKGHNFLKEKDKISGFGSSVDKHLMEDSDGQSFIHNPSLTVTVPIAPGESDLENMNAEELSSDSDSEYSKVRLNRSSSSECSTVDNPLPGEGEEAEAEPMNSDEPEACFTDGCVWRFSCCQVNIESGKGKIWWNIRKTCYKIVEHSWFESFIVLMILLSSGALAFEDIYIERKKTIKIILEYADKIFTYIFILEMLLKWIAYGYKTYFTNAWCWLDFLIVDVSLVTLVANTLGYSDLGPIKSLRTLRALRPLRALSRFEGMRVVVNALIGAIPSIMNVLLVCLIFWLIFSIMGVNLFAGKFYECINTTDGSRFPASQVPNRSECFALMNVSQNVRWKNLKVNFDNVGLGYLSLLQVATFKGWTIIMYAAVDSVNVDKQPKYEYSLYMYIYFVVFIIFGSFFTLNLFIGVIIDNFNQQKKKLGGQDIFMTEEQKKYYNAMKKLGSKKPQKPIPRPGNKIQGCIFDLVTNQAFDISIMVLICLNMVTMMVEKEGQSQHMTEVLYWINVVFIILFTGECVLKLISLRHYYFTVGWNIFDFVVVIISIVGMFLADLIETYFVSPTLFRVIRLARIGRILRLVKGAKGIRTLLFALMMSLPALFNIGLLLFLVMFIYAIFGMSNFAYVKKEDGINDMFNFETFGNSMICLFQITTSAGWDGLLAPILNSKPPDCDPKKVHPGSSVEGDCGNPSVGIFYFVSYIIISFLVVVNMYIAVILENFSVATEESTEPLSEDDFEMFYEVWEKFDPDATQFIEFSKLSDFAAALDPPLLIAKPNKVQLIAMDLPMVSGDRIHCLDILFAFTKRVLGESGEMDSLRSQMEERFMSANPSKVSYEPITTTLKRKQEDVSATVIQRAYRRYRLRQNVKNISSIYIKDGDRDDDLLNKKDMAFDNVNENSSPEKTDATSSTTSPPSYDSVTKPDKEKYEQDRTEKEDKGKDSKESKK

IC50 [1]	IC50 [2]	SMILES	other results
1.4 nM	–	O=S(=O)(Nc1ncns1)c1cc(F)c(Oc2ccc(Cl)cc2-c2cn[nH]c2)cc1F [Example 738, 4-[4-chloro-2-(1H-pyrazol-4-yl)phenoxy]-2,5-difluoro-N-1,2,4-thiadiazol-5-ylbenzenesulfonamide]	–
>1000 nM	–	N#Cc1cc(S(=O)(=O)Nc2ncns2)ccc1Oc1ccc(-n2cc(CO)cn2)cc1 [Example 288, 3-cyano-4-{4-[4-(hydroxymethyl)-1H-pyrazol-1-yl]phenoxy}-N-1,2,4-thiadiazol-5-ylbenzenesulfonamide]	–
7300 nM	–	Cn1ccc(-c2cc(F)ccc2Oc2cc(F)c(S(=O)(=O)Nc3cscn3)cc2Cl)n1 [Example 522, 5-chloro-2-fluoro-4-[4-fluoro-2-(1-methyl-1H-pyrazol-3-yl)phenoxy]-N-1,3-thiazol-4-ylbenzenesulfonamide]	–
1600 nM	–	N#Cc1cc(S(=O)(=O)Nc2nccs2)ccc1Oc1ccc(-n2ccc(C3CC3)n2)cc1 [Example 370, 3-cyano-4-[4-(3-cyclopropyl-1H-pyrazol-1-yl)phenoxy]-N-1,3-thiazol-2-ylbenzenesulfonamide]	–
–	100 nM	N#Cc1cc(S(=O)(=O)Nc2ncns2)ccc1Oc1ccc(Cl)cc1-c1ccnn1CCO [Example 90, 4-(4-chloro-2-(1-(2-hydroxyethyl)-1H-pyrazol-5-yl)phenoxy)-3-cyano-N-(1,2,4-thiadiazol-5-yl)benzenesulfonamide]	–
–	1300 nM	Cc1nsc(NS(=O)(=O)c2ccc(Oc3ccccc3-c3ccccc3)c(C#N)c2)n1 [Example 103, 4-(biphenyl-2-yloxy)-3-cyano-N-(3-methyl-1,2,4-thiadiazol-5-yl)benzenesulfonamide]	–
>1000 nM	–	CN(C)Cc1cnn(-c2ccc(Oc3ccc(S(=O)(=O)Nc4nccs4)cc3C#N)cc2)c1 [Example 377, 3-cyano-4-(4-{4-[(dimethylamino)methyl]-1H-pyrazol-1-yl}phenoxy)-N-1,3-thiazol-2-ylbenzenesulfonamide]	–
–	–	N#Cc1cc(S(=O)(=O)Nc2ncns2)ccc1Oc1cc(OC(F)(F)F)c(F)cc1-c1ccnnc1 [Example 964, 3-cyano-4-[4-fluoro-2-pyridazin-4-yl-5-(trifluoromethoxy)phenoxy]-N-1,2,4-thiadiazol-5-ylbenzenesulfonamide]	IC50 [3]: 21 nM
–	32300 nM	O=S(=O)(Nc1nccs1)c1ccc(Oc2ccc(-c3cocn3)cc2)c(F)c1 [Example 121, 3-fluoro-4-[4-(1,3-oxazol-4-yl)phenoxy]-N-1,3-thiazol-2-ylbenzenesulfonamide]	–
75 nM	–	Cn1nccc1-c1cc(F)ccc1Oc1cc(F)c(S(=O)(=O)Nc2ncns2)cc1Cl [Example 621, 5-chloro-2-fluoro-4-(4-fluoro-2-(1-methyl-1H-pyrazol-5-yl)phenoxy)-N-(1,2,4-thiadiazol-5-yl)benzenesulfonamide]	–
–	–	Cn1nccc1-c1cc(Cl)ccc1Oc1ccc(S(=O)(=O)Nc2ncns2)cn1 [Example 950, 6-[4-chloro-2-(1-methyl-1H-pyrazol-5-yl)phenoxy]-N-1,2,4-thiadiazol-5-ylpyridine-3-sulfonamide]	IC50 [3]: 2700 nM
2200 nM	–	N#Cc1cc(S(=O)(=O)Nc2nccs2)ccc1Oc1ccc(Cl)c(Cn2cncn2)c1 [Example 336, 4-[4-chloro-3-(1H-1,2,4-triazol-1-ylmethyl)phenoxy]-3-cyano-N-1,3-thiazol-2-ylbenzenesulfonamide]	–
–	360 nM	N#Cc1cc(S(=O)(=O)Nc2ncns2)ccc1Oc1ccccc1Oc1ccc(F)cc1 [Example 77, 3-cyano-4-[2-(4-fluorophenoxy)phenoxy]-N-1,2,4-thiadiazol-5-ylbenzenesulfonamide]	–
–	90 nM	COCc1ccc(Oc2ccc(S(=O)(=O)Nc3nccs3)cc2F)c(-c2ccnn2C)c1 [Example 234, 3-fluoro-4-(4-(methoxymethyl)-2-(1-methyl-1H-pyrazol-5-yl)phenoxy)-N-(thiazol-2-yl)benzenesulfonamide]	–
–	–	Cc1cc(S(=O)(=O)Nc2ncns2)c(F)cc1Oc1ccc(C(F)(F)F)cc1-c1ccnnc1 [Example 978, 2-fluoro-5-methyl-4-[2-pyridazin-4-yl-4-(trifluoromethyl)phenoxy]-N-1,2,4-thiadiazol-5-ylbenzenesulfonamide]	IC50 [3]: 4.6 nM
–	540 nM	N#Cc1cc(S(=O)(=O)Nc2nccs2)ccc1Oc1ccc(F)cc1-c1ccnn1CC(F)(F)F [Example 175, 3-cyano-4-(4-fluoro-2-(1-(2,2,2-trifluoroethyl)-1H-pyrazol-5-yl)phenoxy)-N-(thiazol-2-yl)benzenesulfonamide]	–
2500 nM	–	CCn1nc(C(F)(F)F)cc1-c1ccc(Oc2ccc(S(=O)(=O)Nc3nc(C)ns3)cc2C#N)cc1 [Example 291, 3-cyano-4-{4-[1-ethyl-3-(trifluoromethyl)-1H-pyrazol-5-yl]phenoxy}-N-(3-methyl-1,2,4-thiadiazol-5-yl)benzenesulfonamide]	–
–	920 nM	O=S(=O)(Nc1ncns1)c1ccc(Oc2ccc(-c3ccccc3)cc2)c(Cl)c1 [Example 149, 4-(biphenyl-4-yloxy)-3-chloro-N-1,2,4-thiadiazol-5-ylbenzenesulfonamide]	–
9.2 nM	–	O=S(=O)(Nc1nncs1)c1cc(Cl)c(Oc2ccc(Cl)cc2-c2cn[nH]c2)cc1F [Example 564, 5-chloro-4-[4-chloro-2-(1H-pyrazol-4-yl)phenoxy]-2-fluoro-N-1,3,4-thiadiazol-2-ylbenzenesulfonamide]	–
–	60 nM	N#Cc1cc(S(=O)(=O)Nc2nccs2)ccc1Oc1ccc(F)cc1-c1cccc(CCO)c1 [Example 153, 3-cyano-4-{[5-fluoro-3′-(2-hydroxyethyl)biphenyl-2-yl]oxy}-N-1,3-thiazol-2-ylbenzenesulfonamide]	–
–	–	Cc1[nH]ncc1-c1cc(Cl)ccc1Oc1cc(F)c(S(=O)(=O)Nc2nncs2)cc1Cl [Example 816, 5-chloro-4-[4-chloro-2-(5-methyl-1H-pyrazol-4-yl)phenoxy]-2-fluoro-N-1,3,4-thiadiazol-2-ylbenzenesulfonamide]	IC50 [3]: 11 nM
–	–	CN(C)c1n[nH]cc1-c1cc(Cl)ccc1Oc1cc(F)c(S(=O)(=O)Nc2nncs2)cc1Cl [Example 870, 5-chloro-4-{4-chloro-2-[3-(dimethylamino)-1H-pyrazol-4-yl]phenoxy}-2-fluoro-N-1,3,4-thiadiazol-2-ylbenzenesulfonamide]	IC50 [3]: 140 nM
–	7480 nM	NC(=O)c1cc(S(=O)(=O)Nc2nccs2)ccc1Oc1ccc(-c2cc(C(F)(F)F)n[nH]2)cc1 [Example 203, 5-(N-thiazol-2-ylsulfamoyl)-2-(4-(3-(trifluoromethyl)-1H-pyrazol-5-yl)phenoxy)benzamide]	–
430 nM	–	CC(C)(C)n1nc(C(F)(F)F)cc1-c1ccc(Oc2ccc(S(=O)(=O)Nc3nccs3)c(F)c2)cc1 [Example 303, 4-{4-[1-tert-Butyl-3-(trifluoromethyl)-1H-pyrazol-5-yl]phenoxy}-2-fluoro-N-1,3-thiazol-2-ylbenzenesulfonamide]	–
1000 nM	–	Cn1nc(C(F)(F)F)cc1-c1ccc(Oc2cc(F)c(S(=O)(=O)Nc3nncs3)cc2Cl)c(C#N)c1 [Example 297, 5-chloro-4-{2-cyano-4-[1-methyl-3-(trifluoromethyl)-1H-pyrazol-5-yl]phenoxy}-2-fluoro-N-1,3,4-thiadiazol-2-ylbenzenesulfonamide]	–

SMILES	IC50 [1]	IC50 [2]	other results
COc1ccccc1-c1ccccc1Oc1ccc(S(=O)(=O)Nc2nccs2)c(F)c1 [Example 207, 2-fluoro-4-(2′-methoxybiphenyl-2-yloxy)-N-(thiazol-2-yl)benzenesulfonamide]	–	1030 nM	–
